Experimental data: paper PMC9313812, “The Pseudo‐Natural Product Rhonin Targets RHOGDI” (Angewandte Chemie (International Ed. in English), 2022)
Like-named read-outs stand apart in the source and are kept apart here.

Tests used:
[1] = biological target: T1, RHOGDI1 (Homo sapiens, UniProt P52565); experiment: Fluorescence polarization binding of probe 10; details: fluorescence polarization; read-out: KD (RHOGDI1Δ15)
T1 construct: GST; made in house; host or cells: E. coli (XL1-Blue / BL21)
Protocol: (§1) Fluorescence polarization
(§2) The binding of probe 10 to RHOGDI1-3 was confirmed by fluorescence polarization experiments. RHOGDI1 was titrated against 0.5 µM of the fluorescent Rhonin derivative 10 in buffer containing 20 mM Hepes, pH 7.4, 150 mM NaCl, 5 mM MgCl2, 3 mM DTT and incubated for 1 h. The change in fluorescence polarization was monitored at an excitation / emission wavelengths of 535 nm and 593 nm, respectively. […]
(§3) Protein expression and purification
(§4) RHOGDI1 delta15, RHOGDI1 delta25, RHOGDI1-3 were produced in E. coli (XL1-Blue) as a GST recombinant protein as described previously.[9] In summary, protein were expressed in E.coli BL21 upon addition of IPTG overnight. Cell were collected and lysed in a lysis buffer, containing 30 mM Tris-NaOH pH 7.4, 150 mM NaCl, 1 mM DTT, and 5 mM MgCl2. Cells were further lysed using sonication. After centrifugation (20 min at 20,000 g) of lysate, the clear supernatant was used for purification in an ÄKTAprime system connected to a GSH column […]
(§5) Insect cell purification system was used for expression and purification of prenylated proteins based on an established protocol.[9] Sf9/or TNAO38 insect cells (Sf9 used only for virus generation and amplification) were grown to the level of 1.5×10^6 cells/ml before they were transduced with Baculoviruses encoding genes related to the RHO GTPases. Cells were resuspended in lysis buffer, containing 20 mM HEPES-NaOH pH 7.4, 150 mM NaCl, 2 mM β-mercaptoethanol, 5 mM MgCl2, 0.1 mM GDP, 10 mM imidazole and the optimized detergents including 1% CHAPS and 0.5% sodium cholate .[9] Cells were lysed by s onication in ice. After
T1 sequence (P52565 16-204): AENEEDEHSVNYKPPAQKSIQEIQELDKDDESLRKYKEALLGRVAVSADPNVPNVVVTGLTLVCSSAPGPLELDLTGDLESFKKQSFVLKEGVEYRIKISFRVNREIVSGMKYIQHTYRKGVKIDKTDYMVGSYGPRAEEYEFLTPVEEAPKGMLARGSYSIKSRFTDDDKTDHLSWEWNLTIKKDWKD

[2] = biological target: T2, RHOGDI1 (Homo sapiens, UniProt P52565); experiment: Fluorescence polarization binding of probe 10; details: fluorescence polarization; read-out: KD (RHOGDI1Δ25)
T2 construct: GST; made in house; host or cells: E. coli (XL1-Blue / BL21)
Protocol: as §1, §2, §3, §4, §5
T2 sequence (P52565 26-204): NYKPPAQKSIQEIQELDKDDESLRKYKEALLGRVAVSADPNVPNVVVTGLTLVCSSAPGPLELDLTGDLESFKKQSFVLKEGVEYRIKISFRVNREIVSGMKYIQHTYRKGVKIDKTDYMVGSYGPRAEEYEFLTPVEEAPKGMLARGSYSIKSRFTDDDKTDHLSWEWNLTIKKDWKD

[3] = biological target: RHOGDI1 (Homo sapiens, UniProt P52565); experiment: Fluorescence polarization binding of probe 10; details: range from Figure 4e; read-out: KD, measured affinity between probe 10 and RHOGDI1
Protocol: as §1, §2, §3, §4, §5
Target sequence in this assay (P52565 2-204): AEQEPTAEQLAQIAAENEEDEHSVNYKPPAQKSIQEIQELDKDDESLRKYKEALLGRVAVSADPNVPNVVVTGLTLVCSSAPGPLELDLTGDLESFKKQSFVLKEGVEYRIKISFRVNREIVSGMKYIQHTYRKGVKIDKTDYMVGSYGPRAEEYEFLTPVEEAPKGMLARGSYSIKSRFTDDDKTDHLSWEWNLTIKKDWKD

[4] = biological target: T3, RHOGDI2 (Homo sapiens, UniProt P52566); experiment: Fluorescence polarization binding of probe 10
T3 construct: GST; made in house; host or cells: E. coli (XL1-Blue / BL21)
Protocol: as §1, §2, §3, §4, §5

[5] = biological target: T4, RHOGDI3 (Homo sapiens, UniProt Q99819); experiment: Fluorescence polarization binding of probe 10
T4 construct: GST; made in house; host or cells: E. coli (XL1-Blue / BL21)
Protocol: as §1, §2, §3, §4, §5

[6] = biological target: T5, PDEδ (Homo sapiens, UniProt O43924); experiment: Fluorescence polarization, direct binding of probe 10; details: 10 nM probe 10, titration of PDEδ
T5 construct: GST (N); made in house; host or cells: E. coli Rosetta 2
Protocol: RHOGDI1 displaced liposome -bound RAC1 from the surface of L1 chip with a koff of 0.016 […]
bound RAC1. Calculated rate constants by mono-exponential fitting of RU decays were 0.02 and 0.032 s-1 for RHOGDI1-mediated RAC1 displacement from the liposomes in the presence of 7a and 7d, respectively. (d) Competition-based fluorescence polarization experiments were performed by titration of 7a against 10 nM fluorescein-labelled atorvastatin and GST-PDEδ.
(e) Fluorescence polarization experiment using 10 nM probe 10 and titration of PDEδ.
(1 picture or pasted object on this page, not shown here)
Label-free quantification (LFQ) intensities were logarithmized (log2) and proteins, which were not three times quantified in at least one of the groups, were filtered off. […]
as §1
The binding of probe 10 to RHOGDI1-3 was confirmed by fluorescence polarization experiments. […] The change in fluorescence polarization was monitored at an excitation / emission wavelengths of 535 nm and 593 nm, respectively. […]
To determine the effect of 7a on the binding of RHOGDI1 to non-prenylated RAC1-GDP, fluorescence polarization measurements were performed by titrating 1 µM TAMRA-GDP-bound RAC1 with increasing concentrations of RHOGDI1 in the presence and absence of 50 µM 7a in buffer containing 30 mM Tris-HCl, pH 7.5, 150 mM NaCl, 5 mM MgCl2, 1% DMSO. […]

T5 sequence (O43924 whole entry): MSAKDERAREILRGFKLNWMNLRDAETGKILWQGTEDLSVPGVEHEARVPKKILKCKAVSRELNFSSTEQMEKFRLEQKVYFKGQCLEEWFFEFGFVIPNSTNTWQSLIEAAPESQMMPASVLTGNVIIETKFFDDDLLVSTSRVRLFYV
T4 sequence (Q99819 whole entry, species assumed): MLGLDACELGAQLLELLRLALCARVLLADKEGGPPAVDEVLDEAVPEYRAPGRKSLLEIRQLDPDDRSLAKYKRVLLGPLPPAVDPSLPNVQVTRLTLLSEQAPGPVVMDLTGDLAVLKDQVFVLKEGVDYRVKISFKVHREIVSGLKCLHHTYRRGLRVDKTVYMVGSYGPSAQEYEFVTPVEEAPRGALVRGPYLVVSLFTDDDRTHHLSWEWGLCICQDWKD
T3 sequence (P52566 whole entry, species assumed): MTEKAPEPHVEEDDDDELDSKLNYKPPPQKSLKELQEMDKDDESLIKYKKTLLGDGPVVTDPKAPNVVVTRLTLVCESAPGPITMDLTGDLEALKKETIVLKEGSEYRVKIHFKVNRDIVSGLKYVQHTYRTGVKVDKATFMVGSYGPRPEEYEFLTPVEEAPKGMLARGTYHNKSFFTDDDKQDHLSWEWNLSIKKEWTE

Kd [1]: 8.51 µM
Kd [2]: 3.09 µM
Kd [3]: 3.1 to 8.5 µM
Kd [4]: 9.08 µM
Kd [5]: 11.5 µM
Structure (SMILES): COC(=O)C1(C(CC(=O)c2ccccc2)c2ccc(C(=O)NCCOCCOCCNC(=O)CCc3ccc4n3[B-](F)(F)[N+]3=C(c5ccc[nH]5)C=CC3=C4)cc2)N=C(c2ccc(Br)cc2)C2C(=O)N(C)C(=O)C21 (stereo not drawn) [compound 10]
Binding of probe to PDEδ (in words) [6]: binds to PDEδ only at higher concentrations
